Where “and” joins values, the source holds several entries; their conditions need not be identical. Equal entries are not always repeated. Where two headings read alike, the source gives them in different places. Blank lines part the entries; values can stand above or below the compound they belong to.
How the values were obtained:
[1] = system: LN229 human brain glioblastoma cells MGMT+ MMR+; test: Anticancer activity towards LN229 cells (Example 15); format: cell-based; settings: read-out: MGMT+ MMR+ Activity
Method: (§1) LN229 quad cells were maintained in Dulbecco’s Modified Eagle Medium (DMEM) supplemented with 10% fetal bovine serum. Cells were plated into sterile black with glass bottom 384-well plates (Cellvis) at a concentration of 1,000 cells/well (20 µL total volume) using a MultiDrop (Thermo Fisher). Then, assay plates were centrifuged at 300 rpm for 2 seconds and incubated overnight in a 37° C. 5% CO2 incubator. Compounds were prepared as 100 mM stocks in DMSO and stored protected from light at -20′C until use. Prior to compound addition, the stock solutions of compound were diluted two-fold serially in DMSO from 100 mM down to 0.05 mM in a 384-well Source plate. Vehicle control wells containing DMSO and positive control wells containing 10 mM bortezomib were also added to the Source plate. An aliquot in the amount of 40 nL of compound stock solution or DMSO vehicle was transferred from the source plate to the cell assay plate using an Echo Acoustic dispense (Beckman). Three replicate dilution curves of each compound were run on each assay plate. An aliquot in the amount of 120 nL of a 10 mM bortezomib solution was transferred to the positive control wells resulting in a final concentration of 60 µM. The final concentration of compounds ranged from 200 µM to 0.1 µM (12-point, 2-fold dilution dose response curve), and the final DMSO concentration was 0.2%.
(§2) Assay plates were centrifuged at 500 rpm for 2 seconds and incubated for 120 hours at 37° C. in a humidified 5% CO2 incubator. Following incubation, cells were fixed with 4% paraformaldehyde and stained with DAPI for nuclei visualization. The images were acquired on the InCell 2200 high content imager (GE, now […]), and quantified using InCell Analyzer image analysis software. Z prime factor, signal-to-background and coefficient of variation were calculated for each assays plate using mean and standard deviation values of the negative (vehicle) and positive (bortezomib) control wells to ensure assay robustness. Raw cell count data for test compounds was normalized to percent viability relative to the DMSO vehicle control. Data was plotted in GraphPad Prism using a variable slope 4-parameter fit.

[2] = system: LN229 human brain glioblastoma cells MGMT+ MMR-; test: as above; format: cell-based; settings: read-out: MGMT+ MMR -Activity
Method: as §1, §2

[3] = system: LN229 human brain glioblastoma cells MGMT- MMR+; test: as above; format: cell-based; settings: read-out: MGMT -MMR + Activity
Method: as §1, §2

[4] = system: LN229 human brain glioblastoma cells MGMT- MMR-; test: as above; format: cell-based; settings: read-out: MGMT -MMR-Activity
Method: as §1, §2

[5] = 37° C., pH 7.4; cited from earlier work
[6] = system: PD20 cells, FANCD2-/- or +FANCD2; test: Short-term viability assay; format: cell-based, human; settings: PD20 FANCD2-/- vs +FANCD2
[7] = system: DLD1 BRCA2+/- and BRCA2-/- cells; test: Short-term viability assay with or without O6BG; format: cell-based, human; settings: for sensitivity of BRCA2-/- cells: DLD1, ±O6BG; for therapeutic index (TI), ratio of IC50 values in MGMT+/BRCA2+ cells compared to MGMT-/BRCA2- cells: DLD1 isogenic model
[8] = system: PEO4 (BRCA2+) and PEO1 (BRCA2-/-) cells; test: Short-term viability assay with or without O6BG; format: cell-based, human; settings: for therapeutic index (TI): PEO1/4 model; for sensitivity of BRCA2-/- cells: PEO1/PEO4, ±O6BG
LN229 MGMT-/MMR+ cells = test: IR alkaline comet assay; format: cell-based, human
[9] = system: LN229 MGMT+/-, MMR+/- cells; test: Clonogenic survival assay; format: cell-based, human
Method: Clonogenic Cell Survival Assay. Cells were trypsinized, washed, counted, and diluted in a medium containing various concentrations of drug. They were then immediately seeded in six-well plates in triplicate at three-fold dilutions, ranging from 9000 to 37 cells per well. Depending on colony size, these plates were kept in the incubator for 10 to 14 days. After incubation, colonies were washed in phosphate-buffered saline (PBS), stained with crystal violet, counted, and quantified.

[10] = system: linearized pUC19 plasmid DNA; test: Melting temperature assay; format: biochemical; settings: 100 or 500 µM, 3 h
LN229 MGMT-/MMR- cells [11] = test: Short-term cell viability assay; format: cell-based, human; settings: LN229 MGMT-/MMR- cells
[12] = system: DLD1 MSH6-deficient cells; test: Short-term viability assay with or without O6BG; format: cell-based, human; settings: with or without O6BG-induced MGMT depletion
Excerpt: (§3) Short-term Cell Viability Assay.

[13] = system: HCT116 MLH1-/- cells or HCT116 +Chr3 cells; test: Short-term viability assay with or without O6BG; format: cell-based, human
Excerpt: as §3

[14] = system: LN229 MGMT-/MMR- flank tumors; test: Xenograft flank tumor model; format: in vivo, mouse; settings: 5 mg/kg MWF × 3 weeks
LN229 MGMT-/MMR- cells [15] = test: IR alkaline comet assay; format: cell-based, human; settings: 200 µM, 2-24 h
[16] = system: LN229 MGMT+/-, MMR+/- cells; test: Short-term cell viability assay, four isogenic LN229 glioblastoma cell lines; format: cell-based, human
[17] = Homo sapiens, LN-229, 120 hours

- IC50 [1, 17]: > 90 µM
- IC50 [2, 17]: 50 to 90 µM
- IC50 [3, 17]: < 50 µM
- IC50 [4, 17]: < 50 µM
SMILES: O=NN(CCF)C(=O)NC1CCCCC1

SMILES: Nc1nc(OCCCl)c2ncn([C@@H]3O[C@H](CO)[C@@H](O)[C@H]3O)c2n1 [Compound S4, O^6-(2-chloroethyl)guanosine]
- half-life of hydrolysis [5]: ~ 18 min

SMILES: CO[C@@]12[C@H](COC(N)=O)C3=C(C(=O)C(C)=C(N)C3=O)N1C[C@@H]1N[C@@H]12 [MMC, Mitomycin C]
- sensitivity of FANCD2-deficient cells [6]: hypersensitivity to crosslinking agents in FANCD2-/-cells
- sensitivity of BRCA2-/- cells [7]: hypersensitivity of DLD1 BRCA2-/- cells to crosslinking agents independent of MGMT depletion
- therapeutic index (TI), ratio of IC50 values in MGMT+/BRCA2+ cells compared to MGMT-/BRCA2- cells [7]: 26 fold
- therapeutic index (TI) [8]: 7 fold
- sensitivity of BRCA2-/- cells [8]: hypersensitivity of PEO4 BRCA2-/-cells to crosslinking agents independent of MGMT depletion
- IR-induced comet tail (ICL detection) (LN229 MGMT-/MMR+ cells; 0.1 µM, 24 h): partial reduction in the IR-induced comet tail
- IR-induced comet tail (ICL detection) (LN229 MGMT-/MMR+ cells; 50 µM, 2 h): completely abolished the IR-induced comet tail
- comet tailing in the absence of IR (LN229 MGMT-/MMR+ cells; TMZ, KL-50 200 µM, MMC 0.1 or 50 µM): did not

SMILES: O=NN(CCCl)C(=O)NC1CCCCC1 [Lomustine, lomustine, reference compound]
- clonogenic survival, MGMT+ cells ([9]; LN229 MGMT+ cells): cytotoxic to MGMT+ cells
- clonogenic survival, MGMT- cells ([9]; LN229 MGMT- cells, MMR+/-): effective in MMR- cells

SMILES: COS(C)(=O)=O [MMS, Methylmethane sulfonate, reference compound]
- DNA melting temperature [10]: comparable changes in measured DNA melting temperature

SMILES: O=NN(CCF)C(=O)NCCCl
- IC50 ([1]; Homo sapiens, LN-229, 120 h): > 90 µM
- IC50 ([2]; Homo sapiens, LN-229, 120 h): > 90 µM
- IC50 ([3]; Homo sapiens, LN-229, 120 h): 50 to 90 µM
- IC50 ([4]; Homo sapiens, LN-229, 120 h): < 50 µM

SMILES: CCOP(=O)(OCC)C(C)NC(=O)N(CCF)N=O (centres unmarked)
- IC50 ([1]; 120 hours): > 90 µM
- IC50 ([2]; 120 hours): > 90 µM
- IC50 ([3]; 120 hours): > 90 µM
- IC50 ([4]; 120 hours): < 50 µM

SMILES: CC(F)CN/N=N/c1[nH]cnc1C(N)=O (centres unmarked) [Compound 10]
- potency in MGMT-/MMR- cells (LN229 MGMT-/MMR- cells [11]): reduced potency

SMILES: Cn1nnc2c(C(N)=O)ncn2c1=O [TMZ, temozolomide, reference compound]
- IC50 (LN229 MGMT-/MMR- cells [11]; Homo sapiens, LN-229, read-out: IC50): 838 µM
- activity in DLD1 cells [12]: inactive
- activity in HCT116 cells [13]: inactive
- tumor growth ([14]; P.O.): no efficacy
- median OS ([14]; Kaplan-Meier): 10 weeks

SMILES: NC(=O)c1ncn2c(=O)n(CCCl)nnc12 [MTZ, mitozolomide, reference compound]
- DNA damage in unirradiated samples, time course (LN229 MGMT-/MMR- cells [15]; 0 Gy): maximal damage at 2 h
- DNA mobility after IR, time course (LN229 MGMT-/MMR- cells [15]; 10 Gy): reduced DNA mobility within 2 h
- selectivity for MGMT-deficient cells ([16]; LN229, listed as 12a): ~ 7 fold

SMILES: NC(=O)c1nc[nH]c1/N=N/NCCCF [Compound 11]
- activity in the four LN229 cell lines ([16]; MGMT+/-, MMR+/-): low activity in all four cell lines

SMILES: N.N.[Cl][Pt][Cl] [cisplatin]
- sensitivity of FANCD2-deficient cells [6]: hypersensitivity to crosslinking agents in FANCD2-/-cells
- sensitivity of BRCA2-/- cells [7]: hypersensitivity of DLD1 BRCA2-/- cells to crosslinking agents independent of MGMT depletion
- therapeutic index (TI), ratio of IC50 values in MGMT+/BRCA2+ cells compared to MGMT-/BRCA2- cells [7]: 42 fold
- therapeutic index (TI) [8]: 13 fold
- sensitivity of BRCA2-/- cells [8]: hypersensitivity of PEO4 BRCA2-/-cells to crosslinking agents independent of MGMT depletion

SMILES: Nc1nc(OCCF)c2ncn([C@@H]3O[C@H](CO)[C@@H](O)[C@H]3O)c2n1 [Compound S1, O^6-(2-fluoroethyl)guanosine]
- half-life of hydrolysis [5]: 18.5 h and ~ 18.5 h

SMILES: Cc1ncc(CNC(=O)N(CCF)N=O)c(N)n1
- IC50 [1, 17]: > 90 µM
- IC50 [2, 17]: > 90 µM
- IC50 [3, 17]: > 90 µM
- IC50 ([4]; Homo sapiens, LN-229, 120 h): < 50 µM
